Data on 3 compounds can be found in US20240199577A1, “ACORAMIDIS ANALOGS FOR STABILIZING TRANSTHYRETIN AND INHIBITING TRANSTHYRETIN MISFOLDING” (Protego Biopharma, Inc., priority 2021, published 2024).

A value given as a limit tells only on which side of the number the result lay.

The nature of series [1]: Pharmacokinetic study in rat (plasma, CSF, brain). The series is classed as in vivo. The conditions noted are these: male, Sprague-Dawley, oral dose of 40 mg/kg. An excerpt: For a compound provided herein to be an effective TTR stabilizer drug to halt and/or prevent the ocular and cerebral TTR amyloid deposition TTR amyloidosis, it has to be able to penetrate into the brain and CSF (surrogate for eye penetration) and deliver a sufficient amount of TTR stabilizer to stop TTR dissociation. A pharmacokinetic study in rat is used to evaluate the compounds. Male Sprague-Dawley (SD) rats (200-220 g weight) are acclimated for at least 2 to 3 days before being placed on study. All animals will have access to certified rodent diet and water at libitum. […] For IV dosing, the test compound is administered via tail vein or indwelling cannula. For oral dosing, the test compound is administered by oral gavage. Blood and CSF samples are collected at selected timepoints. Blood collection is performed from saphenous vein or tail vein of each animal into polypropylene tubes at each timepoint. […] The weight of brain samples is recorded. […] Using a LC-MSMS method for the quantitative determination of test compound in biological matrixes, amount of test compound and active agent are measured in plasma and CSF at selected timepoints post-dosing and in brain at 24 hrs post dosing. Plasma concentration versus time data is analyzed by non-compartmental approaches using the Phoenix WinNonlin 6.3 software program. […]

A short description of series [2]: In vitro rat liver S9 stability assay (formation of AG10). The series is classed as in vitro ADME. Particulars: rat liver S9, 1 μM test compound, 37° C. As for the experimental part: The test compound was added to liver S9 and incubated at 37° C. in a water bath at a concentration of 1 μM. At each time point (0, 5, 10, 20, 30 and 60 min), stop solution (tolbutamide plus labetalol) was added to precipitate protein and mixed thoroughly. After centrifugation, an aliquot of supernatant was analyzed by LC-MS/MS. The percentage of formation of active agent was calculated at each time point.

For series [3] the following is noted: tafamidis-treated FAP patients, cited from earlier work.

On to `Cc1n[nH]c(C)c1CCCOc1cc(C(=O)O)ccc1F` [AG10, acoramidis], for which the Kp in series [1] (CSF and plasma, over 24 hrs, read-out: CSF to plasma ratio over 24 hrs) was roughly 0.009. Also, the Kp at 24 h in series [1] (brain and plasma, at 24 hrs, read-out: brain to plasma ratio at 24 hrs) is roughly 0.008.

Consider `Cc1n[nH]c(C)c1CCCOc1cc(C(=O)OC2CCN(C)C2)ccc1F` (centres unmarked) [Compound 2, 1-methylpyrrolidin-3-yl 3-(3-(3,5-dimethyl-1H-pyrazol-4-yl)propoxy)-4-fluorobenzoate], for which the “Formation of AG10 at 60 min” value in series [2] is given as “A (A is <25%)”.

Turning to `O=C(O)c1ccc2nc(-c3cc(Cl)cc(Cl)c3)oc2c1` [tafamidis], in series [3] (CSF), the “tafamidis level in CSF relative to that in plasma” value is 2% and the “tafamidis/TTR stoechimetric ratio in CSF” value is no more than 1. Further, the “tafamidis/TTR stoechimetric ratio in plasma” value in series [3] (plasma) was 2.4. Besides, in series [3] (vitreous), the “tafamidis level in vitreous relative to that in plasma” value was 0.5% and the “tafamidis/TTR stoechimetric ratio in vitreous” value is given as no more than 1.
